Results taken from patent US20120277161A1, “INHIBITION OF MULTIPLE CELL ACTIVATION PATHWAYS” (INTER-K PTY LIMITED, priority 2009, published 2012).
One block for each compound: values may come before it.

Key:
[1] = target: PKB beta (Homo sapiens, UniProt P31751); assay: PKB kinase activity assay; type: biochemical
Protocol: In a final reaction volume of 25 μL, PKB(h) (5-10 mU) is incubated with 8 mM MOPS pH 7.0, 0.2 mM EDTA, 30 μM GRPRTSSFAEGKK (SEQ ID No. 26), 10 mM MgAcetate and [γ-33P-ATP] (specific activity approx. 500 cpm/pmol, concentration as required). The reaction is initiated by the addition of the MgATP mix. After incubation for 40 minutes at room temperature, the reaction is stopped by the addition of 5 μL of a 3% phosphoric acid solution. 10 μL of the reaction mixture is then spotted onto a P30 filtermat and washed three times for 5 minutes in 75 mM phosphoric acid and once in methanol prior to drying and scintillation counting.

[2] = target: MEK1 (h) (Homo sapiens, UniProt Q02750); assay: MEK1 kinase activity assay; type: biochemical
Protocol: The reaction is initiated by the addition of the MgATP. After incubation for 40 minutes at room temperature, 5 μL of this incubation mix is used to initiate an ERK2 (m) assay.

[3] = target: PI3K P110δ (Homo sapiens, UniProt O00329); assay: PI3K HTRF activity assay; type: biochemical
Protocol: (§1) In a final reaction volume of 20 μL, the test PI3K is incubated in assay buffer containing 10 μM phosphatidylinositol-4,5-bisphosphate and MgATP. The reaction is initiated by the addition of the MgATP mix. After incubation for 30 minutes at room temperature, the reaction is stopped by the addition of 5 μL of stop solution containing EDTA and biotinylated phosphatidylinositol-3,4,5-trisphosphate. Finally, 5 μL of detection buffer is added (containing europium-labelled anti-GST monoclonal antibody, GST-tagged GRP1 PH domain and streptavidin-allophycocyanin). The test plate is then read in time-resolved fluorescence mode and the homogenous time-resolved fluorescence (HTRF) signal is determined according to the formula HTRF=10000×(Em665 nm/Em620 nm).

[4] = target: PI3K beta (Homo sapiens, UniProt P42338); assay: PI3K HTRF activity assay; type: biochemical
Protocol: as §1

[5] = tested on: JNK; assay: JNK activity; type: biochemical; conditions: 20 μM, data not shown
[6] = tested on: MKN45 gastric carcinoma cells; assay: MTT growth/proliferation, MKN45 cells; type: cell-based; conditions: 48 hours
Protocol: In this study, the cells were incubated in the presence of the dendrimer for 48 hours. Cell lines were maintained at 37° C. in a humid atmosphere containing 5% CO2. Cells were passaged at pre-confluent densities using a solution containing 0.05% trypsin and 0.5 mM EDTA (Invitrogen).

[7] = target: mTOR (Homo sapiens, UniProt P42345); assay: mTOR activity; type: biochemical; conditions: 20 μM, data not shown
[8] = tested on: HT29 human colorectal adenocarcinoma tumour; assay: Inhibition of HT29 tumour growth in a mouse model; type: in vivo, Mouse (Mus musculus) BALB/c nu/nu; conditions: for Tumour volume Delta avg: change from day 0; for dT/dC [%]: versus vehicle
Protocol: HT29 human colorectal adenocarcinoma cells were cultured in RPMI 1640 cell culture medium supplemented with 10% v/v heat inactivated FCS and 50 IU/mL penicillin-streptomycin. The cells were harvested by trypsinisation, washed twice in HBSS and counted. The cells were then resuspended in HBSS to a final concentration of 2×10^7 cells/mL.
Prior to inoculation the skin on the injection site (dorsal right flank) was swabbed with alcohol. The needle was introduced through the skin into the subcutaneous space just below the animal's right shoulder, and 100 μL of cells (2×10^6 cells) were discharged. The treatment of mice began nine days after HT29 cell inoculation, the average tumour volume was 68 mm^3 (average variability of 6.1%).
Body weight and tumour dimensions (length and diameter) were measured for all animals on the first day of treatment (day 0) and then three times per week, including the termination day of the study (Day 24).
Mice were randomized, based on body weight, into two groups of ten mice on Day 0 of the study. The peptide dendrimer Dend 10-10(4) presenting 10 monomer units of the peptide RSKAKNPLYR (SEQ ID No. 6) (see Example 2) was used in this study. The vehicle control (phosphate buffered saline (PBS)) and Dend 10-10(4) dendrimer (20 mg/kg) were each administered by intra-tumoural injection once daily for five consecutive days, beginning on Day 0.
The vehicle control and Dend 10-10(4) dendrimer were administered at a dosing volume of 4.762 mL/kg (100 μL) based on a 21 g mouse. Each animal's body weight was measured immediately prior to dosing. The volume of dosing solution administered to each mouse was calculated and adjusted based on individual body weight.
Tumours were excised from all mice post mortem and weighed. Tumour volume was calculated using the equation:
V (mm^3)=length×diameter^2×π/6
ΔT/ΔC (%) was calculated using the following equation:
ΔT/ΔC %=(ΔvolumeTreatment/ΔVolumeControl)×100
where Δ=change in volume from day 0 to the final measurement day or nominated day of interest.

Chain of PI3K P110δ (O00329 whole entry, the tested form may be a part): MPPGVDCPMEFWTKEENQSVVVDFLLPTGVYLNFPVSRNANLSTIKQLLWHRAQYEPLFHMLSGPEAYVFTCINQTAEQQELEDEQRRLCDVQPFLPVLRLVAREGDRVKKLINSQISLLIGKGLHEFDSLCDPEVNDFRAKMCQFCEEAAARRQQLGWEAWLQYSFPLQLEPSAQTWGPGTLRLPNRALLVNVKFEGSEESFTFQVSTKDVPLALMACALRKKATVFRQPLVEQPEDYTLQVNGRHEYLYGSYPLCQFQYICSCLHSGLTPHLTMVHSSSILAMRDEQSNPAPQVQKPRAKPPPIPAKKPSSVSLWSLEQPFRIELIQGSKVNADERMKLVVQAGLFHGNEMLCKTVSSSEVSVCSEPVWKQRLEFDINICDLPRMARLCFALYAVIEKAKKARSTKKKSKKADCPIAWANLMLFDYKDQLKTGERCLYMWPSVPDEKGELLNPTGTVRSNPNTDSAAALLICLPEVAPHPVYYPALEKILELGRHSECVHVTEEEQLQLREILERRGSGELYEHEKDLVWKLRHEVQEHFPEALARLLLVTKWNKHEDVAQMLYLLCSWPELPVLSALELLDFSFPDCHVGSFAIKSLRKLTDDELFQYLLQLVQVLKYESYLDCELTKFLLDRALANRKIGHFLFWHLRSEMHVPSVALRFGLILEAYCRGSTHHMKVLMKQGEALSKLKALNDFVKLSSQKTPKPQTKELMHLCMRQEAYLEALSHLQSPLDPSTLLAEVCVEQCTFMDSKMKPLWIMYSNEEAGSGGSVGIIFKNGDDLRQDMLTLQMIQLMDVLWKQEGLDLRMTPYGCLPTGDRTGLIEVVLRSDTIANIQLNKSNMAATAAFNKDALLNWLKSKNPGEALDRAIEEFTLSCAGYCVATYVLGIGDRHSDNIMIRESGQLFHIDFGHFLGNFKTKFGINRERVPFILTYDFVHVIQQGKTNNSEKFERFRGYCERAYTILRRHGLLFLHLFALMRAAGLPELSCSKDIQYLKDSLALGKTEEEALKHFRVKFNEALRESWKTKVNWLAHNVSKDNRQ
Chain of PI3K P110δ (P27986 whole entry partner, the tested form may be a part): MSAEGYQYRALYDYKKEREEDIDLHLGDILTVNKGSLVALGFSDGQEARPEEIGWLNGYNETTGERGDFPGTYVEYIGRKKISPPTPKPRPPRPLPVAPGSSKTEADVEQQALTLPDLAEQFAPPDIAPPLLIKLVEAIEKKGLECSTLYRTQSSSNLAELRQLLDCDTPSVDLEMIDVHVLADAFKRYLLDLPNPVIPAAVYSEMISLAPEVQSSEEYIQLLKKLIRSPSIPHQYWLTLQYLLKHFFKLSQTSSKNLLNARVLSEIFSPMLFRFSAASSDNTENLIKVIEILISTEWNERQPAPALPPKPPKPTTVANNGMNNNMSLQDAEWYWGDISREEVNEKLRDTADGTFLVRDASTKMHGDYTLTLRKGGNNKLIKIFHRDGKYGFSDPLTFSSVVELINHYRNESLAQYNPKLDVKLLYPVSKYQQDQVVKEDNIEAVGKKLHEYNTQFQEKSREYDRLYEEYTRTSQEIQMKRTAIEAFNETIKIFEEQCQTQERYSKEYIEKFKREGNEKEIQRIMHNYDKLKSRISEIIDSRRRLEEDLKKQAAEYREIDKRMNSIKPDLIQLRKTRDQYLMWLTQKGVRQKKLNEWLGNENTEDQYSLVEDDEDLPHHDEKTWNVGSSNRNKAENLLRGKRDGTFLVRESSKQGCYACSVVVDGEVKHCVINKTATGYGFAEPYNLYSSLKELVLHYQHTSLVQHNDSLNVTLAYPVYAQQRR
Chain of PKB beta (P31751 whole entry): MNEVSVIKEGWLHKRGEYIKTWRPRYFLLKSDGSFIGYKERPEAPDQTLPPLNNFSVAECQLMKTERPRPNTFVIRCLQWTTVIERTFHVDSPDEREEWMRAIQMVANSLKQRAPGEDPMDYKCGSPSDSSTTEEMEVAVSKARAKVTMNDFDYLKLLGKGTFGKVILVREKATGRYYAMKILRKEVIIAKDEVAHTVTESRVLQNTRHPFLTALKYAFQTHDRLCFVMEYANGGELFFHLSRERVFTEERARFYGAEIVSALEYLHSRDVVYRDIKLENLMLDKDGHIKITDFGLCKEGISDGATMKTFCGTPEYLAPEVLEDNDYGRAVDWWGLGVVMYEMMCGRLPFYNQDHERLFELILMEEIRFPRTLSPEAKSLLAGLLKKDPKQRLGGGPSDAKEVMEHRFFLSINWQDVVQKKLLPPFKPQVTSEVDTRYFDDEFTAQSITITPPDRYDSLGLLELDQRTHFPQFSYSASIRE
Chain of PI3K beta (P42338 whole entry, species assumed): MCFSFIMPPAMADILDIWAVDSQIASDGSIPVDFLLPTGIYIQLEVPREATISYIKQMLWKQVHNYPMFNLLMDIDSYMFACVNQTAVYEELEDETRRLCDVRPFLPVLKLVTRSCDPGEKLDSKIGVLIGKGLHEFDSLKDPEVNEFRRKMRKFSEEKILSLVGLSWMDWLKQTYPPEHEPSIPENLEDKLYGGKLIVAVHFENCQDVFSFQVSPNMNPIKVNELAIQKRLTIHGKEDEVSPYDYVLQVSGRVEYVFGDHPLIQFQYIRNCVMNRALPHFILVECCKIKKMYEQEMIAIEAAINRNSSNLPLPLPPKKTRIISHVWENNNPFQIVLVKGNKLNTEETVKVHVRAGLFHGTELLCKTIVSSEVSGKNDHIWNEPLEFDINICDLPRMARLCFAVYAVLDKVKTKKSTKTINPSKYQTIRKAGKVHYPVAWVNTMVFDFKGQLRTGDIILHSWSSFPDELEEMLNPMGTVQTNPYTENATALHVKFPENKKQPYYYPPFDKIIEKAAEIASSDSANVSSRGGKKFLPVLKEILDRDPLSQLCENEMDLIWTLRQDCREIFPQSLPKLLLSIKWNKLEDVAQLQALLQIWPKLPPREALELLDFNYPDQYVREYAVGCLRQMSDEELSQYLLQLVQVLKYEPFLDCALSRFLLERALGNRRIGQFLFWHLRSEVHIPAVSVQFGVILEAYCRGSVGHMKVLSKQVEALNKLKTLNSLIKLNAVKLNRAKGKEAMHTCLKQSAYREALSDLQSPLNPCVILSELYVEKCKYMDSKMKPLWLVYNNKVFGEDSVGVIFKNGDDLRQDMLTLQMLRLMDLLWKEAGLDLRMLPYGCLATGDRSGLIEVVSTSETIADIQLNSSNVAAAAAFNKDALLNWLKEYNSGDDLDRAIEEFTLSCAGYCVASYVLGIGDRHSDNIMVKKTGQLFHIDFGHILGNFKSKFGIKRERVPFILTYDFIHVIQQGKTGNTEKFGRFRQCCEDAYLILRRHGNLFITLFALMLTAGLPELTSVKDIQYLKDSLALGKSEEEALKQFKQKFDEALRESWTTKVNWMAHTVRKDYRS
Chain of PI3K beta (P27986 whole entry partner, species assumed): as the sequence (P27986 whole entry partner, the tested form may be a part) above

% Kinase inhibition PKB beta ([1]; 20 μM, relative to control): 85%
Percentage (%) kinase inhibition PKB beta ([1]; dendrimer conc. 1 μM): 68%
Percentage (%) kinase inhibition PKB beta ([1]; dendrimer conc. 2 μM): 70%
Percentage (%) kinase inhibition PKB beta ([1]; dendrimer conc. 250 nm): 53%
Percentage (%) kinase inhibition PKB beta ([1]; dendrimer conc. 500 nm): 66%
% Kinase inhibition MEK1 ([2]; 20 μM, relative to control): 90%
Percentage (%) kinase inhibition MEK1 ([2]; dendrimer conc. 1 μM): 76%
Percentage (%) kinase inhibition MEK1 ([2]; dendrimer conc. 2 μM): 88%
Percentage (%) kinase inhibition MEK1 ([2]; dendrimer conc. 250 nm): 2%
Percentage (%) kinase inhibition MEK1 ([2]; dendrimer conc. 500 nm): 34%
Percentage (%) kinase inhibition PI3K P110δ ([3]; dendrimer conc. 1 μM): 39%
Percentage (%) kinase inhibition PI3K P110δ ([3]; dendrimer conc. 2 μM): 56%
Percentage (%) kinase inhibition PI3K P110δ ([3]; dendrimer conc. 250 nm): 9%
Percentage (%) kinase inhibition PI3K P110δ ([3]; dendrimer conc. 500 nm): 25%
PI3K beta % inhibition ([4]; 20 μM final concentration): approx. 92%
Percentage (%) kinase inhibition PI3K P110β ([4]; dendrimer conc. 1 μM): 39%
Percentage (%) kinase inhibition PI3K P110β ([4]; dendrimer conc. 2 μM): 53%
Percentage (%) kinase inhibition PI3K P110β ([4]; dendrimer conc. 250 nm): 28%
Percentage (%) kinase inhibition PI3K P110β ([4]; dendrimer conc. 500 nm): 34%
effect on activity of mTOR [7]: without any effect
Compound: Dend 10-10(4) whose RSKAKNPLYR peptides are entirely D-amino acids and pegylated with two ethylene glycol units [Dend 10-10(4)DP]
effect on activity of JNK [5]: without any effect
inhibition of growth/proliferation of MKN45 cells [6]: inhibited growth/proliferation

Compound: CC(C)C[C@H](NC(=O)[C@@H]1CCCN1C(=O)[C@H](CC(N)=O)NC(=O)[C@H](CCCCN)NC(=O)[C@H](C)NC(=O)[C@H](CCCCN)NC(=O)[C@H](CO)NC(=O)[C@@H](N)CCCNC(=N)N)C(=O)N[C@@H](Cc1ccc(O)cc1)C(=O)N[C@@H](CCCNC(=N)N)C(=O)NCCCC[C@H](NC(=O)[C@H](CCCCNC(=O)[C@H](CCCCNC(=O)[C@H](CCCNC(=N)N)NC(=O)[C@H](Cc1ccc(O)cc1)NC(=O)[C@H](CC(C)C)NC(=O)[C@@H]1CCCN1C(=O)[C@H](CC(N)=O)NC(=O)[C@H](CCCCN)NC(=O)[C@H](C)NC(=O)[C@H](CCCCN)NC(=O)[C@H](CO)NC(=O)[C@@H](N)CCCNC(=N)N)NC(=O)[C@H](CCCNC(=N)N)NC(=O)[C@H](Cc1ccc(O)cc1)NC(=O)[C@H](CC(C)C)NC(=O)[C@@H]1CCCN1C(=O)[C@H](CC(N)=O)NC(=O)[C@H](CCCCN)NC(=O)[C@H](C)NC(=O)[C@H](CCCCN)NC(=O)[C@H](CO)NC(=O)[C@@H](N)CCCNC(=N)N)NC(=O)[C@H](CCCCNC(=O)[C@H](CCCNC(=N)N)NC(=O)[C@H](Cc1ccc(O)cc1)NC(=O)[C@H](CC(C)C)NC(=O)[C@@H]1CCCN1C(=O)[C@H](CC(N)=O)NC(=O)[C@H](CCCCN)NC(=O)[C@H](C)NC(=O)[C@H](CCCCN)NC(=O)[C@H](CO)NC(=O)[C@@H](N)CCCNC(=N)N)NC(=O)[C@H](CCCNC(=N)N)NC(=O)[C@H](Cc1ccc(O)cc1)NC(=O)[C@H](CC(C)C)NC(=O)[C@@H]1CCCN1C(=O)[C@H](CC(N)=O)NC(=O)[C@H](CCCCN)NC(=O)[C@H](C)NC(=O)[C@H](CCCCN)NC(=O)[C@H](CO)NC(=O)[C@@H](N)CCCNC(=N)N)C(=O)NCCCC[C@H](NC(=O)[C@H](CCCCNC(=O)[C@H](CCCNC(=N)N)NC(=O)[C@H](Cc1ccc(O)cc1)NC(=O)[C@H](CC(C)C)NC(=O)[C@@H]1CCCN1C(=O)[C@H](CC(N)=O)NC(=O)[C@H](CCCCN)NC(=O)[C@H](C)NC(=O)[C@H](CCCCN)NC(=O)[C@H](CO)NC(=O)[C@@H](N)CCCNC(=N)N)NC(=O)[C@H](CCCCNC(=O)[C@H](CCCCNC(=O)[C@H](CCCNC(=N)N)NC(=O)[C@H](Cc1ccc(O)cc1)NC(=O)[C@H](CC(C)C)NC(=O)[C@@H]1CCCN1C(=O)[C@H](CC(N)=O)NC(=O)[C@H](CCCCN)NC(=O)[C@H](C)NC(=O)[C@H](CCCCN)NC(=O)[C@H](CO)NC(=O)[C@@H](N)CCCNC(=N)N)NC(=O)[C@H](CCCNC(=N)N)NC(=O)[C@H](Cc1ccc(O)cc1)NC(=O)[C@H](CC(C)C)NC(=O)[C@@H]1CCCN1C(=O)[C@H](CC(N)=O)NC(=O)[C@H](CCCCN)NC(=O)[C@H](C)NC(=O)[C@H](CCCCN)NC(=O)[C@H](CO)NC(=O)[C@@H](N)CCCNC(=N)N)NC(=O)[C@H](CCCCNC(=O)[C@H](CCCNC(=N)N)NC(=O)[C@H](Cc1ccc(O)cc1)NC(=O)[C@H](CC(C)C)NC(=O)[C@@H]1CCCN1C(=O)[C@H](CC(N)=O)NC(=O)[C@H](CCCCN)NC(=O)[C@H](C)NC(=O)[C@H](CCCCN)NC(=O)[C@H](CO)NC(=O)[C@@H](N)CCCNC(=N)N)NC(=O)[C@H](CCCNC(=N)N)NC(=O)[C@H](Cc1ccc(O)cc1)NC(=O)[C@H](CC(C)C)NC(=O)[C@@H]1CCCN1C(=O)[C@H](CC(N)=O)NC(=O)[C@H](CCCCN)NC(=O)[C@H](C)NC(=O)[C@H](CCCCN)NC(=O)[C@H](CO)NC(=O)[C@@H](N)CCCNC(=N)N)C(=O)NCCC(N)=O [Dend 10-10(4)]
inhibition at 1 µM ([1]; dendrimer conc. 1 μM, read-out: Percentage (%) kinase inhibition PKB beta): 70%
inhibition at 1 µM ([2]; dendrimer conc. 1 μM, read-out: Percentage (%) kinase inhibition MEK1): 83%
inhibition at 1 µM ([3]; dendrimer conc. 1 μM, read-out: Percentage (%) kinase inhibition PI3K P110δ): 56%
inhibition at 1 µM ([4]; dendrimer conc. 1 μM, read-out: Percentage (%) kinase inhibition PI3K P110β): 61%
PIK3 beta % activity relative to control ([4]; final concentration 50 μM): 83%
Tumour volume Average ([8]; 20 mg/kg intra-tumoural once daily for five days, Day 0): 68.0 mm^3
Tumour volume Average ([8]; 20 mg/kg intra-tumoural once daily for five days, Day 2): 136.6 mm^3
Tumour volume Average ([8]; 20 mg/kg intra-tumoural once daily for five days, Day 4): 211.9 mm^3
Tumour volume Average ([8]; 20 mg/kg intra-tumoural once daily for five days, Day 7): 248.6 mm^3
Tumour volume Average ([8]; 20 mg/kg intra-tumoural once daily for five days, Day 11): 300.9 mm^3
Tumour volume Average ([8]; 20 mg/kg intra-tumoural once daily for five days, Day 14): 323.9 mm^3
Tumour volume Average ([8]; 20 mg/kg intra-tumoural once daily for five days, Day 16): 391.0 mm^3
Tumour volume Average ([8]; 20 mg/kg intra-tumoural once daily for five days, Day 18): 476.9 mm^3
Tumour volume Average ([8]; 20 mg/kg intra-tumoural once daily for five days, Day 21): 601.5 mm^3
Tumour volume Average ([8]; 20 mg/kg intra-tumoural once daily for five days, Day 24): 702.1 mm^3
average tumour weight at the end of the study ([8]; 20 mg/kg intra-tumoural once daily for five days, Day 24, control 0.962 g): 0.437 g
tumour growth compared to the vehicle only control ([8]; FIG. 16): markedly inhibited
Tumour volume Delta avg ([8]; Day 0): 0.0 mm^3
Tumour volume Delta avg ([8]; Day 2): 68.6 mm^3
Tumour volume Delta avg ([8]; Day 4): 144.0 mm^3
Tumour volume Delta avg ([8]; Day 7): 180.6 mm^3
Tumour volume Delta avg ([8]; Day 11): 232.9 mm^3
Tumour volume Delta avg ([8]; Day 14): 255.9 mm^3
Tumour volume Delta avg ([8]; Day 16): 323.1 mm^3
Tumour volume Delta avg ([8]; Day 18): 408.9 mm^3
Tumour volume Delta avg ([8]; Day 21): 598.7 mm^3
Tumour volume Delta avg ([8]; Day 24): 710.4 mm^3
dT/dC [%] ([8]; Day 0): 100.0%
dT/dC [%] ([8]; Day 2): 134.3%
dT/dC [%] ([8]; Day 4): 102.0%
dT/dC [%] ([8]; Day 7): 68.1%
dT/dC [%] ([8]; Day 11): 58.0%
dT/dC [%] ([8]; Day 14): 44.6%
dT/dC [%] ([8]; Day 16): 45.2%
dT/dC [%] ([8]; Day 18): 47.1%
dT/dC [%] ([8]; Day 21): 55.7%
dT/dC [%] ([8]; Day 24): 54.5%
